From US20070082916A1, “Fungicidal mixtures for controlling rice pathogens” (BASF AKTIENGESEELSCHAFT, priority 2003, published 2007)

Tested on: Corticium sasakii
Assay: Activity against sheath blight on rice caused by Corticium sasakii (protective spray on potted rice plants)
Format: in vivo
Settings: individual active compound, rice cultivar Tai-Nong 67, evaluated after 11 days, untreated control 90% infection
Procedure: 1% by weight of the emulsifier Uniperol® EL (wetting agent having emulsifying and dispersing action based on ethoxylated alkylphenols) was added to this solution, and the solution was diluted with water to the desired concentration.
Use example—Activity against sheath blight on rice caused by Corticium sasakii
The next day, oat grains infected with Corticium sasakii were placed into the pots (in each case 5 grains per pot). The plants were then placed in a chamber at 26° C. and maximum atmospheric humidity.
Evaluation is carried out by determining the infected leaf areas in percent. These percentages were converted into efficacies.
The efficacy (E) is calculated as follows using Abbot's formula: E=(1−α/β)·100 • α corresponds to the fungicidal infection of the treated plants in % and • β corresponds to the fungicidal infection of the untreated (control) plants in %
An efficacy of 0 means that the infection level of the treated plants corresponds to that of the untreated control plants; an efficacy of 100 means that the treated plants are not infected.

| Molecule | Efficacy in % of the untreated control (4 ppm in the spray liquor) [%] | Efficacy in % of the untreated control (1 ppm in the spray liquor) [%] | Efficacy in % of the untreated control (16 ppm in the spray liquor) [%] |
| --- | --- | --- | --- |
| CC1CCN(c2c(-c3c(F)cc(F)cc3F)c(Cl)nc3ncnn23)CC1 [I, 5-chloro-7-(4-methylpiperidin-1-yl)-6-(2,4,6-trifluorophenyl)-[1,2,4]tri-azolo[1,5-a]pyrimidine] | 33 |  |  |
| CC(Nc1c(-c2c(F)cc(F)cc2F)c(Cl)nc2ncnn12)C(F)(F)F (centres unmarked) [B] | 67 |  |  |
| CC1CCN(c2c(-c3c(F)cccc3Cl)c(Cl)nc3ncnn23)CC1 [A] | 0 |  |  |
| zinc ammoniate-ethylenebis(dithiocarbamate) [II.3] |  | 0 | 22 |
| CN(C)C(=S)SSC(=S)N(C)C [II.5, bis(dimethylthiocarbamoyl)disulfide] |  | 0 | 0 |
| manganese-ethylenebis(dithiocarbamate)zinc complex [II.1] |  | 0 | 11 |
| manganese-ethylenebis(dithiocarbamate) [II.2] |  | 0 | 11 |
